Data published in article PMC11423305, “Structure-Based Design of CBP/EP300 Degraders: When Cooperativity Overcomes Affinity” (JACS Au, 2024).
Read-outs that look alike come from different tables or passages of the source.

Legend:
CBP = target: T1, CBP (Homo sapiens, UniProt Q92793); assay: Quantification of CBP degradation by Western blotting in LP1 cells; type: cell-based; details: 16 h, Western blot; for % remaining CBP: 5 μM compound
T1 construct: quantification of CBP and EP300 levels by Western blotting following 16 h treatment of LP1 cells; endogenous in cells; host or cells: LP1 cells
T1 sequence (Q92793 whole entry): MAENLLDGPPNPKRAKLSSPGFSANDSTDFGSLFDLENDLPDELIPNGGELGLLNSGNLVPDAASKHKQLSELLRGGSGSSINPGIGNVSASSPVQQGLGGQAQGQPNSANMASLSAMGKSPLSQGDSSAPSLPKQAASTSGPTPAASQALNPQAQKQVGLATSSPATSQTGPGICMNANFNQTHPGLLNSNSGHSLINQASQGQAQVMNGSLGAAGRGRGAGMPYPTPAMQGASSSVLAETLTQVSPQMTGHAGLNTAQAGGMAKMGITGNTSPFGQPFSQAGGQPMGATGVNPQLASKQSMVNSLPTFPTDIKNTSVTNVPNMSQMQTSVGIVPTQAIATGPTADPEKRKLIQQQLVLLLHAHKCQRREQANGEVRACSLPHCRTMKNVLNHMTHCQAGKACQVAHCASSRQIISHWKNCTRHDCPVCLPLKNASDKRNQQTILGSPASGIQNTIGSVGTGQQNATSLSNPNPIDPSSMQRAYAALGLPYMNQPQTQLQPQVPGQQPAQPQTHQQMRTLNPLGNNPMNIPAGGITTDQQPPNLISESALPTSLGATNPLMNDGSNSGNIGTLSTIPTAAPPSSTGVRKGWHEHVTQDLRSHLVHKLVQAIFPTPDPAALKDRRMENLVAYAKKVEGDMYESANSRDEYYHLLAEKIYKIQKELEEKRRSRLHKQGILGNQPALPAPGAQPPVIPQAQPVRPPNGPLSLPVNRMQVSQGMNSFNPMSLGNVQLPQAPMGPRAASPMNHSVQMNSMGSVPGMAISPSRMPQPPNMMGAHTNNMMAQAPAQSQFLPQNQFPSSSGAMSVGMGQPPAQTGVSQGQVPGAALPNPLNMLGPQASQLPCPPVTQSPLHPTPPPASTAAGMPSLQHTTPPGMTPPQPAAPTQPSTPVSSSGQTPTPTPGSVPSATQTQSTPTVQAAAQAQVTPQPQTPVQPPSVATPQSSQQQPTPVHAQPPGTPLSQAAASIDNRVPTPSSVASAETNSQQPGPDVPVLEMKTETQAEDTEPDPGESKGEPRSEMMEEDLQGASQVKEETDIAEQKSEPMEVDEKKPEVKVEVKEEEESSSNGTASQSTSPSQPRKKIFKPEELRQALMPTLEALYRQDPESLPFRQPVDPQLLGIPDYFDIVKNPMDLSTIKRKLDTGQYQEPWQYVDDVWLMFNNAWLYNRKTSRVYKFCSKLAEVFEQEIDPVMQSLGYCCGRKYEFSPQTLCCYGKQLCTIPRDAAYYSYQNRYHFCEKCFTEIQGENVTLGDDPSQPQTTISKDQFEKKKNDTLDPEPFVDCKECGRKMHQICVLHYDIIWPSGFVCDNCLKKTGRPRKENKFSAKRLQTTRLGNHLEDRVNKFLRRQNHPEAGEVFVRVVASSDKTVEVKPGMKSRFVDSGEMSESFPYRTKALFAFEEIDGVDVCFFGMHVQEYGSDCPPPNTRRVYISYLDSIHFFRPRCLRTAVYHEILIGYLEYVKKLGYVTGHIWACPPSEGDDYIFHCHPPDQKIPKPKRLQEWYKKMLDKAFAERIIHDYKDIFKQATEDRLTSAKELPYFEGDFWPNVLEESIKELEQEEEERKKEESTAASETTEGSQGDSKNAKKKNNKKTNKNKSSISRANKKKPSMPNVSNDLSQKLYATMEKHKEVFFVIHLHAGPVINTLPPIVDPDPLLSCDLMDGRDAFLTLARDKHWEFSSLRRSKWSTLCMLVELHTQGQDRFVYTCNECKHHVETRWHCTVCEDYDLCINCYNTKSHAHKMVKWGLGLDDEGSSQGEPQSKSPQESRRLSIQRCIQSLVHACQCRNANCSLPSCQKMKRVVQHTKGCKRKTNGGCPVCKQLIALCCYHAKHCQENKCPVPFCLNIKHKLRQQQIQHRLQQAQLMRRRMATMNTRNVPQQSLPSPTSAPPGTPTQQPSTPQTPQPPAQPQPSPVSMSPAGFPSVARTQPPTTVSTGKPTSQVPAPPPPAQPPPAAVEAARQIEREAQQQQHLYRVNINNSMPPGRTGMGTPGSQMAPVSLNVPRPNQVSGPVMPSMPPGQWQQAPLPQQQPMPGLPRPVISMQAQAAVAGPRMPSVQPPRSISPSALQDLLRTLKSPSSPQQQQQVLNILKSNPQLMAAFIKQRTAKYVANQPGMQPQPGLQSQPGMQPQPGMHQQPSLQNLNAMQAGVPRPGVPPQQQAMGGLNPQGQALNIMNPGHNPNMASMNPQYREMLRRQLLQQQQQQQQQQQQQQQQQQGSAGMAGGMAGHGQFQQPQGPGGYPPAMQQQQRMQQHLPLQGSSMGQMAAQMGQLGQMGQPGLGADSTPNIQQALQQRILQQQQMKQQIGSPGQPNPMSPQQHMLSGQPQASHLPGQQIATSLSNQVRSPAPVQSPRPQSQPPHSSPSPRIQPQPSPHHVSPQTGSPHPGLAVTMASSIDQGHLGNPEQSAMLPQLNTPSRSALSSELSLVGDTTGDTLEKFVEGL
Protocol: (§1) LP1 cells were cultured in DMEM (Gibco, 41966-029) supplemented with 15 % FBS (Sigma, F9665); MM1S and LNCaP cells in RPMI 1640 ATCC modification (Gibco, […]
(§2) DMEM/F12 (Gibco, 11320074) supplemented with 1 % non-essential amino acids […]
(§3) additionally supplemented with 1 % penicillin/streptomycin (Gibco, 15070-063), and cells maintained in a humidified incubator with 5 % CO2 at 37 °C. The identity of all lines (except for MM1S which were recently purchased from ATCC) was authenticated by STR profiling (performed by Microsynth).
(§4) Quantification of CBP/EP300 degradation by Western blotting
(§5) LP1 cells plated on 6 well plates were treated with the stated compounds at a final concentration of 0.1 % DMSO for the stated time. Cells were harvested on ice, washed in PBS and lysed in RIPA buffer (50 mM tris pH 7.5, 2 mM EDTA, 150 mM NaCl, 0.5 % sodium deoxycholate, 1 % Triton X100) supplemented with cOmplete ™ protease inhibitor cocktail (Roche). Protein concentrations were determined using the Pierce ™ BCA Protein Assay Kit (Thermo Scientific, 23227) and equal amounts were separated on 4-12 % ExpressPl us™ PAGE gels (GenScript, M41215). Proteins were transferred to PVDF membranes, the membranes were blocked with 5 % milk (Merk Millipore, 115363) in PBS-T and proteins were stained with the following antibodies at 4 °C overnight: CBP […]
(§6) BRD4 (Bethyl Laboratories, A301-985A50, diluted 1:2000) and vinculin (Invitrogen, 42H89L44, diluted 1:1000). For detection, membranes were incubated for 1 h at room temperature with HRP-conjugated secondary antibodies (Southern Biotech, anti-rabbit […]
(§7) SuperSignal™ West Pico PLUS Chemiluminescent Substrate (Thermo Scientific, 34580) and the Vilber Fusion-FX7 imager. Bands were quantified using ImageJ software and protein levels normalized to protein from DMSO treated cells run on the same membrane. For dose response curves, data was fitted using a four -parameter dose-response curve in GraphPad Prism v. 9.5.1, where the top is fixed at 100 %. The DC50 was defined as the PROTAC concentration resulting in 50 % remaining protein. […]

EP300 = target: T2, EP300 (Homo sapiens, UniProt Q09472); assay: Quantification of EP300 degradation by Western blotting in LP1 cells; type: cell-based; details: 16 h, Western blot; for % remaining EP300: 5 μM compound
T2 construct: quantification of CBP and EP300 levels by Western blotting following 16 h treatment of LP1 cells; endogenous in cells; host or cells: LP1 cells
T2 sequence (Q09472 whole entry): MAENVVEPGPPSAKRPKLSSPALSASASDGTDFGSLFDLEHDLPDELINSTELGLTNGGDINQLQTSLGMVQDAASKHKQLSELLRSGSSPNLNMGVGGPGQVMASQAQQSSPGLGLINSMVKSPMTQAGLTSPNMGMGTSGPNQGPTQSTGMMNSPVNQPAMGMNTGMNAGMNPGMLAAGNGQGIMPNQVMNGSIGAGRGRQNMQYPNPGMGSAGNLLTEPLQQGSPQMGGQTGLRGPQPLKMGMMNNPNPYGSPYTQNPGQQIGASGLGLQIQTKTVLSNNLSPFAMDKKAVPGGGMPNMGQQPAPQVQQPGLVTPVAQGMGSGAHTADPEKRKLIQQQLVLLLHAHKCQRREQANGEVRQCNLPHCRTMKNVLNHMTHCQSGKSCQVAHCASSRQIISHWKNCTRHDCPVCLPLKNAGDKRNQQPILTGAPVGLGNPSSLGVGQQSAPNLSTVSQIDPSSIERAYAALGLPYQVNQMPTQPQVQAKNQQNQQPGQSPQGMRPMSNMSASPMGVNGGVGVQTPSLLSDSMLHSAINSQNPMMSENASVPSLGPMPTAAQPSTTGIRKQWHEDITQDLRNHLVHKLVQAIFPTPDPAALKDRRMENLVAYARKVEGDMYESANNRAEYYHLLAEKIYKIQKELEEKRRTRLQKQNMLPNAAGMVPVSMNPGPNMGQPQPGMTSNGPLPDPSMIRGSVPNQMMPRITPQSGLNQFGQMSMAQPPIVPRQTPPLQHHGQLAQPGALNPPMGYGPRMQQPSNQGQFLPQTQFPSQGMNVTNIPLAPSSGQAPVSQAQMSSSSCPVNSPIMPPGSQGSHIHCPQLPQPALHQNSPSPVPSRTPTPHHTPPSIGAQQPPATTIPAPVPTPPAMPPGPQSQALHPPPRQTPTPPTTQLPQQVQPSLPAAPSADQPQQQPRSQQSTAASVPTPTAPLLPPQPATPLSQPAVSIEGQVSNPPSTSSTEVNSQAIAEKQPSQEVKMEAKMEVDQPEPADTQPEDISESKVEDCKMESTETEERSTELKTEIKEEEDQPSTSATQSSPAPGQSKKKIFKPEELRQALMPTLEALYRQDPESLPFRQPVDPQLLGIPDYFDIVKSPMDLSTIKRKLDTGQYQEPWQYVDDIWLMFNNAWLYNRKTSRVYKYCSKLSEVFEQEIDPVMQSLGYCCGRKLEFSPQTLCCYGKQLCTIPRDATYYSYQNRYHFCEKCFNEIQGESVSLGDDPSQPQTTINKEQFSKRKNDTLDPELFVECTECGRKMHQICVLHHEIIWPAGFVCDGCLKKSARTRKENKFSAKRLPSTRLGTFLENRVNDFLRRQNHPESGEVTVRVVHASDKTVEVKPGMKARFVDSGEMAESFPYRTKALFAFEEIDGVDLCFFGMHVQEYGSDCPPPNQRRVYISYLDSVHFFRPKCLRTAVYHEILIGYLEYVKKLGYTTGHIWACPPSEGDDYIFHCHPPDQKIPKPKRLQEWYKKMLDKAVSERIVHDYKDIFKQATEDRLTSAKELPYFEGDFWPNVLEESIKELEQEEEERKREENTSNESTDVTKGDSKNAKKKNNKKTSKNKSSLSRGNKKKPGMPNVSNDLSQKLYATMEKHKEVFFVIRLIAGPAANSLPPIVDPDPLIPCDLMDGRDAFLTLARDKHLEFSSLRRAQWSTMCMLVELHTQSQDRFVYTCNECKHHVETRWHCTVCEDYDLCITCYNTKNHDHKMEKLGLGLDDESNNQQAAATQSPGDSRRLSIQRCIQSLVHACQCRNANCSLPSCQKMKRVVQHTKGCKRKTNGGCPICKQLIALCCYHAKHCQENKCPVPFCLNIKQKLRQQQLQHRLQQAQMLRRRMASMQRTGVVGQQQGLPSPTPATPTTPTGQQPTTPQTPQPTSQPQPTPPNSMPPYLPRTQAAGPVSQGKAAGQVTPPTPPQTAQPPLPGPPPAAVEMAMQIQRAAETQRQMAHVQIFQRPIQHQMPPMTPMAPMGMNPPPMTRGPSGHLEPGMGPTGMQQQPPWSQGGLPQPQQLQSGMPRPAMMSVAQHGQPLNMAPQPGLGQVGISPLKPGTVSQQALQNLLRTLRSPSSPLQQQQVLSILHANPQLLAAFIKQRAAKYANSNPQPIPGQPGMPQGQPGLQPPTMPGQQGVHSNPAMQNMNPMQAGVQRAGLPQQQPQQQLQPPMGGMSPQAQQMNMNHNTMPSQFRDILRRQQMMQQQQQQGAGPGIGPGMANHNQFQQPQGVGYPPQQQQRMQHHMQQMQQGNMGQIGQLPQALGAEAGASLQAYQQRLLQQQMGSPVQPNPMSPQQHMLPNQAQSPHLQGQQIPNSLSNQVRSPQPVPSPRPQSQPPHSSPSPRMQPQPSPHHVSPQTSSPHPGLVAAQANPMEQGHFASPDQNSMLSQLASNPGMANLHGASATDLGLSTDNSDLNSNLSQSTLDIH
Protocol: as §1, §2, §3, §4, §5, §6, §7

EP300-BRD = target: T3, EP300-BRD (Homo sapiens, UniProt Q09472); assay: BROMOscan ligand binding site-directed competition assay, EP300; details: for Kd: BROMOscan; for LE EP300 (ligand efficiency): LE = 1.4(pIC50)/N
T3 construct: T7 phage display fusion with DNA tag for qPCR; purchased Eurofins Discovery (BROMOscan service); host or cells: E. coli infected with T7 phage
T3 sequence (Q09472 1049-1156 limits assumed): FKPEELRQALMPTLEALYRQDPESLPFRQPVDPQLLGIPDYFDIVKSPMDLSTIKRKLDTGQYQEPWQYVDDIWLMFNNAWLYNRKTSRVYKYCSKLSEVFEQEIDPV
Protocol: (§8) 2. Methods and General Procedures […]
(§9) KD values were determined using BROMOscan™ technology, carried out by Eurofins […]
(§10) Discovery according to their standard protocol. Briefly E. coli were infected with T7 phage […]
(§11) strains displaying bromodomains and bromodomain protein was subsequently purified […]
(§12) through lysis, centrifugation and filtration. Affinity resins were generated by incubation of […]
(§13) streptavidin-coated magnetic beads with biotinylated small molecules or acetylated […]
(§14) peptide ligands. Binding reactions were assembled by combining the bromodomains and […]
(§15) liganded affinity beads in binding buffer (17 % SeaBlock, 0.33x PBS, 0.04 % Tween 20, […]
(§16) 0.02 % BSA, 0.004 % sodium azide and 7.4 mM DTT) with compounds (11-point, 3-fold […]
(§17) dilution series) added to give a final DMSO concentration of 0.09 %. Assay plates were […]
(§18) incubated for 1 h, prior to washing and elution of beads. The bromodomain concentration […]
(§19) in the eluates was measured by qPCR of the DNA tag on the bromodomain.
(§20) KD values were calculated with a standard dose-response curve fitted using the Hill […]
(§21) Response = Background + Signal − Background […]
(§22) The Hill Slope was set to -1 and curves fitted using a non-linear least square fit with the Levenberg-Marquardt algorithm.
(§23) Ligand efficiency (LE) was calculated as follows: LE = 1.4(pIC50)/N

CRBN and CBP-BRD = CRBN and CBP-BRD (Homo sapiens, UniProt Q92793+Q96SW2); assay: FluoPPI cellular ternary complex formation, CBP-BRD; type: cell-based; details: U2OS cells, 6 h
[1] = target: CRBN and CBP catalytic core (Homo sapiens, UniProt Q92793+Q96SW2); assay: FluoPPI cellular ternary complex formation, CBP catalytic core; type: cell-based; details: U2OS cells, 6 h
CBP-BRD [2] = target: T4, CBP-BRD (Homo sapiens, UniProt Q92793); assay: BROMOscan ligand binding site-directed competition assay, CBP; set-up: T7 phage display fusion with DNA tag for qPCR; purchased Eurofins Discovery (BROMOscan service); host or cells: E. coli infected with T7 phage; details: for Kd: BROMOscan; for LE CBP (ligand efficiency): LE = 1.4(pIC50)/N
Protocol: as §8, §9, §10, §11, §12, §13, §14, §15, §16, §17, §18, §19, §20, §21, §22, §23

[3] = target: T5, CBP-BRD:CRBN thalidomide binding domain ternary complex (Homo sapiens, UniProt Q92793+Q96SW2); assay: TR-FRET CBP-BRD:PROTAC:CRBN ternary complex formation; details: CBP-BRD and CRBN-thalidomide binding domain labeled with TR-FRET pair
T5 construct: GST-CBP (human, residues 1081-1197); the C-terminus of CRBN (human, residues 318-442); His6 with TEV cleavage site (N, cleaved yes); made in house; host or cells: Rosetta (DE3) cells (E. coli)
T5 sequence (Q92793 1081-1197): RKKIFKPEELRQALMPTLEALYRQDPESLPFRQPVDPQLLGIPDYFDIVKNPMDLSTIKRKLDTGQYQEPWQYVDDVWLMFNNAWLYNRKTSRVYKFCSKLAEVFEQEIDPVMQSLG
T5 sequence (Q96SW2 318-442): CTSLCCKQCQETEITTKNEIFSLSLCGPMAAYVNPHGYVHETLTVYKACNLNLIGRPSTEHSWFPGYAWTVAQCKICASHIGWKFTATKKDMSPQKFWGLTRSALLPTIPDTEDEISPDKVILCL
Protocol: (PMSF), and 1 mM EDTA) and lysed by sonication. The lysates were clarified by centrifugation (18,000 rpm, 4 °C, 1 h).
For GST-CBP the soluble proteins were loaded onto a column packed with glutathione sepharose 4B (GE Healthcare) and subsequently eluted with 10 mM reduced glutathione in buffer containing 20 mM Tris-HCl pH 8.0, and 150 mM NaCl. Finally, a size exclusion step (HiLoad 16/600 Superdex 200 pg column from GE Healthcare) was used to further purify the protein in buffer containing 50 mM HEPES pH 7.5 and 150 mM NaCl. For His-CRBN and His-CRBN-Avi(biotin), the soluble fractions were loaded onto the HisTrap FF crude column (GE Healthcare) and washed with lysis buffer supplemented with 50 mM imidazole. The proteins were eluted with a buffer containing 250 mM imidazole, 100 mM Tris-HCl pH 8.0 and 500 mM NaCl. For His-CRBN-Avi(biotin) only, recombinant TEV protease was used to cleave the His6-tag during overnight dialysis at 4 °C against buffer containing 100 mM Tris-HCl pH 8.0 and 500 mM NaCl. The dialyzed sample was passed through the HisTrap FF crude column to remove His6-tagged TEV protease and uncleaved protein. […]
The maximal control contained no PROTAC, the blank contained no SK-20 and no PROTAC – these were replaced by the appropriate buffer. […] The samples were incubated for 3 h (20 °C, dark) and the signal was detected using the Infinite M1000 plate reader (Tecan). After excitation at 317 nm, emission at 620 and 665 nm was recorded. […]
were determined according to the following equation:
activity (%) = ΔF ∗ 100 = F−Fb ∗ 100 , where Ft is the TR-FRET signal in the absence of any compound (maximal control, 100 % activity), Fb the TR-FRET signal in the absence of the GST -CBP (blank, 0 % activity) and F the TR -FRET signal in the presence of the compound. Dose -response curves were plotted in GraphPad Prism 10.2.3 and fitted with nonlinear regression “log(inhibitor) vs. normalized response – variable slope”, from which IC 50 values were determined. […]

CBP-BRD [4] = target: T4, CBP-BRD; assay: TR-FRET competition with acetylated peptide binding to CBP-BRD, with and without CRBN (cooperativity); set-up: GST-CBP (human, residues 1081-1197); made in house; host or cells: Rosetta (DE3) cells (E. coli)

SMILES | % remaining CBP (CBP) [%] | % remaining EP300 (EP300) [%] | Kd (EP300-BRD) [nM] | Kd (CBP-BRD [2]) [nM] | LE EP300 (ligand efficiency) (EP300-BRD) | LE CBP (ligand efficiency) (CBP-BRD [2]) | also measured
Cc1cc2c(NC(=O)c3cc(NC(=O)COCCOCCOCCNc4cccc5c4C(=O)N(C4CCC(=O)NC4=O)C5=O)cc(-c4ccn(C)n4)c3)cccc2nn1 (stereo not shown) [compound 8] | 81 | 95 |  |  |  |  | 
Cc1cc2c(NC(=O)c3cc(NC(=O)CCCCCCCCCCCNc4cccc5c4C(=O)N(C4CCC(=O)NC4=O)C5=O)cc(-c4ccn(C)n4)c3)cccc2nn1 (stereo not shown) [compound 4] | 21 | 43 | > 10000 | 3300 |  |  | ternary complex formation in cells with CRBN and CBP-BRD (CRBN and CBP-BRD): good ternary complex formation; ternary complex formation in cells with CBP catalytic core [1]: able to induce ternary complex formation
Cc1cc2c(NC(=O)c3cc(NC(=O)CCCCCCCCNc4cccc5c4C(=O)N(C4CCC(=O)NC4=O)C5=O)cc(-c4ccn(C)n4)c3)cccc2nn1 (stereo not shown) [compound 6] | 83 | 87 |  |  |  |  | 
CC(=O)Nc1cc(C(=O)Nc2cccc3nnc(C)cc23)cc(-c2ccn(C)n2)c1 [compound 3] |  |  | 25 | 29 | 0.35 | 0.35 | 
CC(=O)Nc1cc(NC(=O)c2ccco2)cc(C(=O)Nc2cccc3nnc(C)cc23)c1 [compound 1] |  |  | 23 | 19 | 0.33 | 0.34 | 
Cc1cc2c(NC(=O)c3cc(NC(=O)CCCCCCCN4CCN(c5ccc6c(c5)C(=O)N(C5CCC(=O)NC5=O)C6=O)CC4)cc(-c4ccn(C)n4)c3)cccc2nn1 (stereo not shown) [compound 9] | > 95 | > 95 | 45 | 28 |  |  | ternary complex formation in cells with CRBN and CBP-BRD (CRBN and CBP-BRD): good ternary complex formation
Cc1cc2c(NC(=O)c3cc(NC(=O)c4ccco4)cc(-c4ccn(C)n4)c3)cccc2nn1 [compound 2] |  |  | 9.9 | 8.7 | 0.33 | 0.33 | 
Cc1cc2c(NC(=O)c3cc(NC(=O)CCCCCCCCCCNc4cccc5c4C(=O)N(C4CCC(=O)N(C)C4=O)C5=O)cc(-c4ccn(C)n4)c3)cccc2nn1 (stereo not shown) [compound 10] |  |  |  |  |  |  | degradation of CBP (CBP; 1 μM): abrogated; degradation of EP300 (EP300; 1 μM): abrogated; ternary complex formation (TR-FRET) [3]: did not show cooperativity or ternary complex formation; IC50 (CBP-BRD [4]; absence of CRBN, read-out: CBP-BRD IC50 (binary, IC50[control])): 220 nM; IC50 (CBP-BRD [4]; presence of high concentrations of CRBN C-terminal thalidomide binding domain, read-out: ternary IC50 (IC50[CRBN])): 230 nM
Cc1cc2c(NC(=O)c3cc(NC(=O)CCCCCCCCCCNc4ccc5c(c4)C(=O)N(C4CCC(=O)NC4=O)C5=O)cc(-c4ccn(C)n4)c3)cccc2nn1 (stereo not shown) [compound 7] | 30 | 69 |  |  |  |  | 
